Data taken from patent US11524009B2, “Combination comprising at least one spliceosome modulator and at least one inhibitor chosen from BCL2 inhibitors, BCL2/BCLxL inhibitors, and BCLxL inhibitors and methods of use” (Eisai R&D Management Co., Ltd., priority 2017, dated 2022).

Columns and labels:
Type in all cases: cell-based
[1] = system: NCIH1568 cells; test: Growth inhibition, MCL1 rescue by MCL1L cDNA overexpression; conditions: NCIH1568 (MCL1-dependent), Dox-induced MCL1L cDNA vs empty vector
Source text: (§1) BCL-xL shRNA 1 ([…]) (Wei G, et al., 2012, Cancer Cell 21(4): 547-562) was cloned into Agel and EcoRl of the Tet inducible lentiviral pLKO-iKD-H1 puro vector (Wiederschain D, et al., 2009, Cell Cycle 8(3): 498-504). MCL1 shRNA 48 ([…]) (Wei G, et al., 2012, Cancer Cell 21(4): 547-56) was cloned into Agel and EcoRl of the Tet inducible lentiviral pLKO-iKD-U6 puro vector. MCL1-L pENTR-D-TOPO was Gateway cloned (LR clonase, Thermo Fisher Scientific) into pINDUCER20 (Meerbrey K L, et al., 2011, Proc Natl Acad Sci USA. 108(9):3665-3670). Lentiviruses were prepared in LentiX-293T cells. […]
(§2) For compound dose response experiments, cells were plated in 96 or 384 well plates at 1,000 cells in 50 μl per well. […] At t=0, untreated cells were lysed with CellTiter-Glo and measured on an Envision plate reader. At t=72 (72 hours after compound addition), cells treated with compound were lysed with CellTiter-Glo and analyzed on Envision. The luminescence value from each treatment sample was normalized to the average value of the respective DMSO control. […]

[2] = system: MCL1 protein in NCIH1568 cells; test: Western Blot Analysis of MCL1L, truncated MCL1 and cleaved PARP; conditions: 6 hours
Protocol: Cell lines were lysed in RIPA buffer (Boston BioProducts) plus protease-inhibitor cocktail (Mini-complete, EDTA-free, Roche) and phosphatase inhibitor PhosSTOP (Roche). Lysates were diluted in RIPA buffer with 4×LDS Sample Buffer (Nupage, Thermo Fisher Scientific) and 10× Reducing Reagent (Nupage, Thermo Fisher Scientific) and boiled for 5 minutes. Twenty five micrograms of protein were loaded per well in 4-12% Bis-Tris SDS Page gels (Novex, Thermo Fisher Scientific). Gels were transferred to nitrocellulose membranes using iBlot system (Thermo Fisher Scientific). Membranes were blocked in blocking buffer (1× Tris-Buffered Saline+0.1% Tween-20 (Boston Bioproducts)+5% Non-Fat Dry Milk (Bio-Rad)) for 1 hour and then cut. Each section was probed separately with antibodies to each of the following proteins in blocking buffer: MCL1 (Cell Signaling Technologies 5453) (D35A5) rabbit monoclonal diluted 1:500, BCL-xL (Cell Signaling Technologies 2764) (54H6) rabbit monoclonal diluted 1:500, Cleaved Parp (Cell Signaling Technologies 5625) (D64P10) rabbit monoclonal diluted 1:500, and GAPDH (Sigma G8795) mouse monoclonal at 100 ng/mL. Blots were incubated with primary antibodies dilutions shaking at 4° C. overnight. Western blots were then blotted either with Odyssey Licor or HRP secondary antibodies. Blots were then washed four times using wash buffer (1× Tris-Buffered Saline+0.1% Tween-20). Blots imaged using Licor were probed shaking at room temperature for 1 hour with Licor IR-labeled secondary antibodies, IRDye® 800CW Goat anti-Rabbit IgG (Odyssey 925-32211) and IRDye® 680LT Goat anti-Mouse IgG (Odyssey 925-68020) diluted 1:10,000 in blocking buffer. Blots were then washed three times with wash buffer. IR-dye detection was performed using the Licor imaging system (Odyssey) according to manufacturer's instruction. Blots imaged using HRP were probed shaking at room temperature for 1 hour with Anti-mouse IgG, HRP-linked Antibody (Cell Signaling Technologies 7076) and Anti-rabbit IgG, HRP-linked Antibody (Cell Signaling Technologies 7074) diluted 1:5000 in blocking buffer. […]

[3] = system: A549 cells; test: Growth inhibition with or without Dox-induced knockdown of BCLxL
Source text: as §1, §2

[4] = system: MCL1 gene splicing in NCIH1568 cells; test: Quantitative RT-PCR detection of MCL1 mRNAs (splicing modulation); conditions: six-hour treatment, qRT-PCR
Protocol: RNA lysates were isolated from cells treated with compounds in 96 well plates and reverse transcribed using TaqMan Gene Expression Cells-to-CT Kit (Thermo Fisher Scientific) according to manufacturer's instruction. Quantitative PCR was performed using TaqMan Gene Expression Master Mix (Thermo Fisher Scientific) with MCL1 transcript probes (Integrated DNA technologies FAM-ZEN/IBFQ) duplexed with 18S rRNA VIC-PL (Thermo Fisher Scientific assay ID Hs99999901_s1) and quantified using the ΔΔCt method.

Question: What does the source list for `CC[C@H](O)[C@@H](C)[C@H]1O[C@@H]1C[C@@](C)(O)/C=C/C=C(\C)[C@H]1OC(=O)C[C@H](O)CC[C@@](C)(O)[C@@H](OC(=O)N2CCN(C3CCCCCC3)CC2)/C=C/[C@@H]1C` [E7107, (8E,12E,14E)-7-((4-Cycloheptylpiperazin-1-yl)carbonyl)oxy-3,6,16,21-tetrahydroxy-6,10,12,16,20-pentamethyl-18,19-epoxytricosa-8,12,14-trien-11-olide]?
Answer: cell death with cDNA overexpression of MCL1L [1]: rescued the cell death; cleaved PARP protein (indicator of apoptosis) [2]: induction; full length MCL1 protein [2]: dose-dependent downregulation; truncated short-form MCL1 protein product [2]: increased in a dose-dependent manner; growth inhibition ([3]; A549 (MCL1-independent), without BCLxL knockdown): cytostatic inhibition; growth inhibition ([3]; A549, inducible knockdown of BCLxL (Dox)): clear cell death; MCL1L mRNA [4]: robust reduction; MCL1S mRNA [4]: transient expression; MCL1 pre-mRNA with intron-retention [4]: continuous induction
